Results on 14 compounds are retold here after patent publication US20240132485A1, “HETEROCYCLIC CULLIN RING UBIQUITIN LIGASE COMPOUNDS AND USES THEREOF” (CEMM - FORSCHUNGSZENTRUM FÜR MOLEKULARE MEDIZIN GMBH, priority 2020, published 2024).

The test system of one data set is CUL4B_MUT KBM7 cells. Nature of the data set: Cell viability assay (CellTiter Glo), CUL4B mutant KBM7 clone, 3-day treatment. In kind it is cell-based. Conditions: Homo sapiens, KBM-7, 72 h, CUL4B mutant KBM7, 3-day treatment, read-out: LC50 CUL4B_MUT. As to the method: (§1) KBM7^WT, UBE2M and CUL4B mutant KBM7 clones (UBE2M^mut and CUL4B^mut) were seeded at a cell density of 50,000 cells/mL in 96-well with DMSO or degraders Z1 to Z3, Z5 to Z7, Z9 to Z11, Z13 and Z14 in triplicates. Cells were treated for 3 days, after which a cell viability assay was performed (CellTiter Glo, Promega), according to manufacturer's protocol. Survival curves and IC50 values (LC50 values) were calculated by best-fit analysis of the log 10 drug concentration to fold change of drug-treated cells over DMSO-treated cells. All survival assays included technical triplicates per sample, per experiment.
(§2) Compounds, Z1 to Z3, Z5 to Z7, Z9 to Z11, Z13 and Z14, were tested for their antiproliferative effects in human leukemia cells (KBM7). These cells were either transduced with a control sgRNA (KBM7_WT), or with an sgRNA targeting UBE2M or CUL4B, leading to a hypomorph (deletion of six amino acids) with a functional impairment (UBE2M_MUT).
(§3) Indeed, 11 compounds Z1 to Z3, Z5 to Z7, Z9 to Z11, Z13 and Z14 were identified to fulfill these criteria and to stand out in terms of fold-change significance; see, e.g., FIG. 1 and Table 1. The dose ranging differential effect of these hits was assessed/validated, comparing their activity in KBM7_WT (KBM7^WT) vs UBE2_MUT and CUL4B_MUT cells (UBE2M^mut and CUL4B^mut).
In general terms: ATP-based viability assays read luminescence as a measure of living cells.

In a further data set the test system is KBM7_WT cells. Put plainly: Cell viability assay (CellTiter Glo), KBM7 wild-type, 3-day treatment. In kind it is cell-based. Conditions: Homo sapiens, KBM-7, 72 h, read-out: LC50 KBM7_WT. As to the method:
as §1, §2, §3

The next data set relates to UBE2M_MUT KBM7 cells. Put plainly: Cell viability assay (CellTiter Glo), UBE2M mutant KBM7 clone, 3-day treatment. The class given is cell-based. Conditions: Homo sapiens, KBM-7, 72 h, UBE2M mutant KBM7, 3-day treatment, read-out: LC50 UBE2M_MUT. As to the method:
as §1, §2, §3

Another data set has as its system Cyclin K. Conditions: cited from earlier work.
In the next data set the test system is KBM7 cells (wild-type). Nature of the data set: KBM7 CTG EC50 assay (UBE2M wild-type). The class given is cell-based, human. An outline of the steps:
(§4)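 Wild-type KBM7 cells, or KBM7 cells with a hypomorphic UBE2M mutation that impairs Cullin-RING ligase activity, were treated for 72 h with compounds in a 10-point, 1:4 titration (0 to 20 μM). Viability was read by CellTiter-Glo 2.0 luminescence.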

For data set [1], the target named is T1, DDB1-CDK12/Cyclin K ternary complex (Homo sapiens, UniProt Q16531+Q9NYV4).
T1 construct: expressed in transfected cells; host or cells: HEK293T wildtype cells, transient PEI transfection
T1 sequence (Q9NYV4 whole entry): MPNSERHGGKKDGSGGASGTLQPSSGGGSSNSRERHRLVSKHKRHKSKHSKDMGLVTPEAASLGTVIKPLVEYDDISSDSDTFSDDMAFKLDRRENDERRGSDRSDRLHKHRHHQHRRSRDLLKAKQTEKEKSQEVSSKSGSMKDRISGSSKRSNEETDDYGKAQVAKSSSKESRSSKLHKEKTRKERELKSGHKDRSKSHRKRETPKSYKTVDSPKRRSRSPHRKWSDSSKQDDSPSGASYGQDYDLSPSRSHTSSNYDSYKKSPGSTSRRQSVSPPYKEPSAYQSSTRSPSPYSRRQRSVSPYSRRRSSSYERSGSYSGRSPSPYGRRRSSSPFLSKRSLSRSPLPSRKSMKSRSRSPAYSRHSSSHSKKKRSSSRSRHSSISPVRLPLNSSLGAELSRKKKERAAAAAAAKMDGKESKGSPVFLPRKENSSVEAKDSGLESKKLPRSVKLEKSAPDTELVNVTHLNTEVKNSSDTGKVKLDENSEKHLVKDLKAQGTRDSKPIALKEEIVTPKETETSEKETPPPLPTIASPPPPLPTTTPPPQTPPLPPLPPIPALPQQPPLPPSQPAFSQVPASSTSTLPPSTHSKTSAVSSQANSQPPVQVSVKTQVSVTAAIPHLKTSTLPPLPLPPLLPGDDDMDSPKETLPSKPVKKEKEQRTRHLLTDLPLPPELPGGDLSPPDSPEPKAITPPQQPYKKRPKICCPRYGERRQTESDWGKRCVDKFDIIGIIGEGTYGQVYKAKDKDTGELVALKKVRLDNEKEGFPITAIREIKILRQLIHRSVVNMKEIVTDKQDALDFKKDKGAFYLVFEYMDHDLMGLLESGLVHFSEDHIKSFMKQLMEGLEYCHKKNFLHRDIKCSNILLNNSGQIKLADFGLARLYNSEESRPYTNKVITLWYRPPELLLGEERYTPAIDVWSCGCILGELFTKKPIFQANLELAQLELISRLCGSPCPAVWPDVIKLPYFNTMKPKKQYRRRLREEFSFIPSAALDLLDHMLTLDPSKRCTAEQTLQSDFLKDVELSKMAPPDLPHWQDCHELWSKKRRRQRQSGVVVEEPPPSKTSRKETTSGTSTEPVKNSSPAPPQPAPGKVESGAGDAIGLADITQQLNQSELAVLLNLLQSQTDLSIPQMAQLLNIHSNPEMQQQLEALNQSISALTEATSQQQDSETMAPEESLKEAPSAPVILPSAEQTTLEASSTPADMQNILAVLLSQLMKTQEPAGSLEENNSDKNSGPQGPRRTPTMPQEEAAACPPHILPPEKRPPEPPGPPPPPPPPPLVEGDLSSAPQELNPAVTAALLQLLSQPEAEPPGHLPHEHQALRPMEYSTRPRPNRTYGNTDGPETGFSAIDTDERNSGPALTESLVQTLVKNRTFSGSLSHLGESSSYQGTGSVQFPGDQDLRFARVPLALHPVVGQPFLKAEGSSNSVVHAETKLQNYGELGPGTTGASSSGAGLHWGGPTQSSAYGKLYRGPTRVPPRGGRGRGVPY
T1 sequence (Q16531 whole entry): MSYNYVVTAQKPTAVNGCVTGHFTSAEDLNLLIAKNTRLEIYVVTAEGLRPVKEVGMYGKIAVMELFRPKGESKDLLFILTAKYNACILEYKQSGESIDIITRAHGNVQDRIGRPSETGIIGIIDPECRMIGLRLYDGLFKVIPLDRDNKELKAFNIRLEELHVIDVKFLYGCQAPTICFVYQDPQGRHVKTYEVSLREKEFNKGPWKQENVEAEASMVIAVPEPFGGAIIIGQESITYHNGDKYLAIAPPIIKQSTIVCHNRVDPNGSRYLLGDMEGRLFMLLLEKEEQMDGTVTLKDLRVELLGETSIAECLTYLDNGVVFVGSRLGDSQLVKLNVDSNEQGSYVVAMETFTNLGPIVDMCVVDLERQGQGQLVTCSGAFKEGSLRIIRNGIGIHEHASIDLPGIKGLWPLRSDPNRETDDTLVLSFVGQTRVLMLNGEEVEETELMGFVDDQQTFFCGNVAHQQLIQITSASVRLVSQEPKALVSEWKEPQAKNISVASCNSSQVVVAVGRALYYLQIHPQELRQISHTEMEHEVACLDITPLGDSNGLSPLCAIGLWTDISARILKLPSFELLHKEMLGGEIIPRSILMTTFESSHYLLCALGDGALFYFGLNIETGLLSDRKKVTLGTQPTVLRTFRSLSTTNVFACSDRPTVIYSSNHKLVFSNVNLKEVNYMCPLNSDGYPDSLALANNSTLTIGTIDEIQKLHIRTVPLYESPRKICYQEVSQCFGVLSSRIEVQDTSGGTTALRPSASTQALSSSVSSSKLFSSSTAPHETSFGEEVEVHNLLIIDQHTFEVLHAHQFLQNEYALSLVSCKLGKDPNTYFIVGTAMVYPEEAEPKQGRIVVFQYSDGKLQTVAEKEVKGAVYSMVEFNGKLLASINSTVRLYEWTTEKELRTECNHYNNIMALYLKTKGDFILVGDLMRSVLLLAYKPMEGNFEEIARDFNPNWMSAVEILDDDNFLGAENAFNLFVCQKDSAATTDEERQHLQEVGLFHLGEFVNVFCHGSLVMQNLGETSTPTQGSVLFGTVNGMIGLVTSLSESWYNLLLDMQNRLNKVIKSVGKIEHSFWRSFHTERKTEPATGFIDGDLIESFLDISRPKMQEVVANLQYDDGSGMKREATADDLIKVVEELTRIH
T1 sequence (O75909 whole entry partner): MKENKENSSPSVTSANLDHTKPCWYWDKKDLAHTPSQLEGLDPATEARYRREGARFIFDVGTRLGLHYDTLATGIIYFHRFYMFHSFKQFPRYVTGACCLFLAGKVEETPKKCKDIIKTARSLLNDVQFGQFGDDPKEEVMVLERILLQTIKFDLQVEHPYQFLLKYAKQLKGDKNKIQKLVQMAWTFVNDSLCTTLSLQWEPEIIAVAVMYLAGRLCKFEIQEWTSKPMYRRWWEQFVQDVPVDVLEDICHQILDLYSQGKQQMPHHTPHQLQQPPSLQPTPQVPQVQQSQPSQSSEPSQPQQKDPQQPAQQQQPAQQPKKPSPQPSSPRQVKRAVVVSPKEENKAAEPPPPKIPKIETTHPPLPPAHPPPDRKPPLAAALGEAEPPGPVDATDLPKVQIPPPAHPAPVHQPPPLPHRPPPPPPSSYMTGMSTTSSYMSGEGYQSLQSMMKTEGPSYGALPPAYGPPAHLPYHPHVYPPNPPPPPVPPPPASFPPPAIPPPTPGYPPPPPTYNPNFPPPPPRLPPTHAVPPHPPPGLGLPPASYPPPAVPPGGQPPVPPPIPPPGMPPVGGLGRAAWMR
Put plainly: NanoBRET EC50 assay (HaloTag_CDK12 / NanoLuc_DDB1 in HEK293T). The class given is cell-based. An outline of the steps:
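DDB1–CDK12/Cyclin K recruitment measured by NanoBRET in HEK293T transiently co-transfected with HaloTag_CDK12 and NanoLuc_DDB1 and labelled overnight with 100 nM HaloTag 618 ligand. Compounds titrated 10-point, 1:4 from 20 μM, 10 min at room temperature. Donor 460 nm and acceptor 647 nm emission read after Nano-Glo substrate.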

The subject of data set [2] is KBM7 cells harboring a hypomorphic UBE2M mutation. Put plainly: KBM7 CTG EC50 assay (UBE2M knock-out). Conditions: Homo sapiens, KBM-7; 72 h incubation, CellTiter-Glo; read-out: KBM7 CTG EC50 (UBE2M knock-out) Activity Class. The class given is cell-based. The method, boiled down: as §4
A further data set concerns CCNK. Put plainly: NanoLuc-CCNK degradation assay (HEK293T_Nluc_CCNK-tagged cells). The class given is cell-based. Conditions: 4 h incubation, HEK293T_Nluc_CCNK-tagged cells; read-out: NanoLuc-CCNK degradation DC50 Activity Class. The method, boiled down:
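HEK293T cells with nanoluciferase knocked in at the N-terminus of endogenous CCNK (CRISPR) exposed to a 10-point titration (0 to 10 μM, 1:4) in Opti-MEM I + 4% FBS for 4 h. Nano-Glo substrate then added and luminescence read as a measure of Cyclin K abundance.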

The target of data set [3] is T2, Cdk12 (696-1,082)/CycK (1-267) protein complex (Homo sapiens, UniProt Q9NYV4).
T2 construct: Cdk12 (696-1,082)/CycK (1-267) protein complex
T2 sequence (Q9NYV4 696-1082 limits assumed): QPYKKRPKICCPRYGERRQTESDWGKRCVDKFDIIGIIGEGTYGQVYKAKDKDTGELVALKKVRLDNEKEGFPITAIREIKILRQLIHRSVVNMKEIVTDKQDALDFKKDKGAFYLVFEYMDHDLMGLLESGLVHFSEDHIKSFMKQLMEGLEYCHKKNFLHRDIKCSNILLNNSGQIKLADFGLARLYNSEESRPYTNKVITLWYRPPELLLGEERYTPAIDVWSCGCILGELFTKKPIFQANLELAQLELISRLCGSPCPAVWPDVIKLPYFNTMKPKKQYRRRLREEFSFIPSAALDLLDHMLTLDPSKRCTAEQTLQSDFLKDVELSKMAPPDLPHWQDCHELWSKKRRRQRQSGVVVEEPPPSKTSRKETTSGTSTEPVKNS
T2 sequence (O75909 1-267 partner limits assumed): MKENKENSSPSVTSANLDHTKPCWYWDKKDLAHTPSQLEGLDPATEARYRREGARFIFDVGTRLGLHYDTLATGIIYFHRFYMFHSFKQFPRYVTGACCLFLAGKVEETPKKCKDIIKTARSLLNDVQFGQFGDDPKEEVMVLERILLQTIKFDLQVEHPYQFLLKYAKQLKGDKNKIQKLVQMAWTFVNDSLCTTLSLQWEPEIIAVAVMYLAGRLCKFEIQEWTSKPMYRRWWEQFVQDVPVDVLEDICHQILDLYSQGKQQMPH
Put plainly: Cdk12 [high ATP] in vitro kinase activity assay. To be noted: physiological ATP concentrations (1 mM ATP), 50 μM compound. In kind it is biochemical. As to the method: This assay on recombinant proteins allows assessment of the extent of inhibition of CDK12 kinase activity of compounds. The added benefit of Cyclin K degradation as opposed to CDK12 inhibition alone can thereby be estimated. The observed disconnect between CDK12 inhibition and efficacy in the KBM7 cell viability assay supports an important contribution of Cyclin K degradation to the therapeutic effect.
Kinase reactions (50 μl) were carried out with recombinant highly purified proteins. Cdk12 (696-1,082)/CycK (1-267) protein complex (0.5 μM) was preincubated with 50 μM of compound and vehicle control (DMSO) for 10 minutes at room temperature in kinase buffer (40 mM Tris pH 7.5, 20 mM MgCl2, 0.1 mg/ml BSA) prior the addition of pS7-CTD substrate peptide (Ac-YSPTSP-pS-YSPTSP-pS-YSPTSP-pS-Y-PEG2-RR-amide, 95% purity, Biosyntan, Germany) (100 μM) and further 10 min incubation at room temperature. Cold ATP (to a final concentration of 1 mM) was added, and the reaction mixture was incubated for 60 min at 30° C. at 500 rpm. Kinase activity was determined using the ADP-Glo™ Kinase Assay (Promega). The luminescence signal was measured using the multimode plate reader EnVision 2105 (Perkin Elmer).
Uniprot protein codes: (Cdk12) Q9NYV4, (CycK) 075909

In data set [4] the target is T1, DDB1-CDK12/Cyclin K ternary complex. Nature of the data set: NanoBRET fold-change assay (HaloTag_CDK12 / NanoLuc_DDB1 in HEK293T). Conditions: 10 μM compound, 10 minutes. In kind it is cell-based. The method, boiled down:
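HEK293T cells transiently co-transfected with HaloTag_CDK12 and NanoLuc_DDB1, labelled overnight with 100 nM HaloTag 618 ligand (DMSO no-ligand control), then treated with compound at 10 μM final for 10 min at room temperature. BRET read as 460 nm donor and 647 nm acceptor emission after Nano-Glo substrate; reported as fold change.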

Data set [5] has as its target Nanoluc_DDB1 (N-terminal Nanoluc luciferase, G4S linker, DDB1 (FL)) (UniProt Q16531). Nature of the data set: NanoBRET in HEK293T cells, 10 µM compound Example 3-48; class B = 3-4 fold increase.

Chain of Nanoluc_DDB1 (N-terminal Nanoluc luciferase, G4S linker, DDB1 (FL)) (Q16531 other isoform, or with tags, fused parts or gaps): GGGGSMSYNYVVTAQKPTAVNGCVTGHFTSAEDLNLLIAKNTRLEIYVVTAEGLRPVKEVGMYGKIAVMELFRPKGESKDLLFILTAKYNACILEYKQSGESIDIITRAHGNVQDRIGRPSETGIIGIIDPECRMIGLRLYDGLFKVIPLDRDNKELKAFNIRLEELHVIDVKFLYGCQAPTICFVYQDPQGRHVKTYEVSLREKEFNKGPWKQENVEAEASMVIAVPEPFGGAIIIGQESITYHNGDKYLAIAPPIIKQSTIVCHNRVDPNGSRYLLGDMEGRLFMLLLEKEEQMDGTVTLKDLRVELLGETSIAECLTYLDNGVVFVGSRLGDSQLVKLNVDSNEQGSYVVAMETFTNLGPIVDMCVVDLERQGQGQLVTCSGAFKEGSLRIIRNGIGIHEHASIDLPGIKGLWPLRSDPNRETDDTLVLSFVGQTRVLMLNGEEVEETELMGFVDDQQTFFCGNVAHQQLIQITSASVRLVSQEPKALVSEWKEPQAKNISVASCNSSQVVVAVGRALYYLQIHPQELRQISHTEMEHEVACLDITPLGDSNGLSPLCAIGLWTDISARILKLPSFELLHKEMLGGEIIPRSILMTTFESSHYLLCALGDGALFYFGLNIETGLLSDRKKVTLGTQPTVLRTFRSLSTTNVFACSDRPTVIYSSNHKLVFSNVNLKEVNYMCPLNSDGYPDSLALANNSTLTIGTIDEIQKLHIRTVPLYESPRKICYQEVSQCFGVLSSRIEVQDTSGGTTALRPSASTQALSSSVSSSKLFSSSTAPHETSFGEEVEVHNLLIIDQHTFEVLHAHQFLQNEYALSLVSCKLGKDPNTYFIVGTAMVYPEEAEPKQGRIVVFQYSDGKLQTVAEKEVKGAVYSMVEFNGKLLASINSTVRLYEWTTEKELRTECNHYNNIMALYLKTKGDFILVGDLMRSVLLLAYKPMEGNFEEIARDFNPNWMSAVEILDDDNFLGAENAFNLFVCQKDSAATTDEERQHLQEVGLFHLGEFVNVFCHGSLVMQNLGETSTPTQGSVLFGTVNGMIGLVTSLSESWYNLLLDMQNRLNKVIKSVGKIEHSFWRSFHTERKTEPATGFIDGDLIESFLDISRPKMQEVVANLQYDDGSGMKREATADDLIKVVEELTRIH

For `Cc1cc(NC(C)C(=O)Nc2ccc(Cl)cn2)ccc1Br` (centres unmarked) [Example Z6], the CC50 in the data set with CUL4B_MUT KBM7 cells is 6.06 µM; in the data set on KBM7_WT cells, 1570 nM; in the data set with UBE2M_MUT KBM7 cells it was 6.8 µM.

With `CN(C)C/C=C/C(=O)Nc1ccc(C(=O)N2CCC[C@@H](Nc3ncc(Cl)c(-c4c[nH]c5ccccc45)n3)C2)cc1` [THZ-531], in the data set with Cyclin K, the “Cyclin K degradation, in words” value is listed as “did not cause cyclin K degradation”.

Consider `O=C(NCCCNc1ccc(C(F)(F)F)cn1)c1ccccc1` [Example Z14], for which the CC50 in the data set on CUL4B_MUT KBM7 cells is greater than 10 µM; in the data set with KBM7_WT cells, 4690 nM; with UBE2M_MUT KBM7 cells it was greater than 10 µM.

In the case of `CC[C@H](CO)Nc1nc(NCc2ccc(-c3ccccn3)cc2)c2ncn(C(C)C)c2n1` [CR8], the “Cyclin K degradation, in words” value with Cyclin K is “cause Cyclin K degradation”.

Turning to `Cc1cnc(NC(=O)C2CC(=O)N(c3cccc(Cl)c3Cl)C2)s1` (centres unmarked) [Example Z13], the CC50 in the data set on CUL4B_MUT KBM7 cells was determined as 5.68 µM; in the data set on KBM7_WT cells, 1290 nM; in the data set with UBE2M_MUT KBM7 cells it was 6.99 µM.

Regarding `COc1ccc2cc(C(C)C(=O)Nc3ncc(C)s3)ccc2c1` (centres unmarked) [Example Z2], the CC50 was greater than 10 µM with CUL4B_MUT KBM7 cells, 1350 nM in the data set with KBM7_WT cells and greater than 10 µM in the data set on UBE2M_MUT KBM7 cells.

In general, EC50 refers to the midpoint of the concentration-response curve. By DC50 is commonly meant the midpoint of the concentration-degradation curve. For the compound `O=C(Cc1cnc2ccccc2c1)Nc1ncc(C(F)(F)F)s1` [Example 3-36, 2-(quinolin-3-yl)-N-(5-(trifluoromethyl)thiazol-2-yl)acetamide], the EC50 in the data set on KBM7 cells (wild-type) (Homo sapiens, KBM-7, 72 h incubation, CellTiter-Glo, read-out: KBM7 CTG EC50 (UBE2M wild-type) Activity Class) was no more than 250 nM; in data set [2], no more than 250 nM. Besides, the “activity in KBM7 cytotoxicity assay, in words” value in the data set on KBM7 cells (wild-type) (KBM7) is on record as “extremely potent activity”. Further, in data set [1], the “activity in NanoBRET assay (ternary complex formation), in words” value is recorded as “good activity”. Besides, the “NanoBRET EC50 Activity Class” value in [1] (10-point titration from 20 μM, HEK293T) is “B (0.50 μM≤EC50≤0.25 μM)”. In addition, the DC50 in the data set with CCNK was no more than 100 nM. The “Cdk12 inhibition, in words” value in data set [3] was “weak Cdk12 inhibition”. Also, the “NanoBRET fold-change Activity Class” value in data set [4] was “C (2-3 fold increase)”.

Take `Cc1ccc(NC(=O)C2CC(=O)N(c3cccc(Cl)c3)C2)nc1` (centres unmarked) [Example Z9]: the figures for the CC50 in the data set on CUL4B_MUT KBM7 cells, in the data set on KBM7_WT cells and in the data set on UBE2M_MUT KBM7 cells were greater than 10 µM, 2350 nM and greater than 10 µM, respectively.

Consider “HaloTag_CDK12 (N-terminal HaloTag, G4S linker, CDK12 (713-1052)) (from UniProt Q9NYV4 713-1052) (HEK293T cells)”, for which the NanoBRET fold increase in data set [5] is 3 to 4 fold.

On to `Cc1cn2nc(NCCNc3ccc(C#N)cn3)sc2n1` [Example Z5], for which the values for the CC50 in the data set with CUL4B_MUT KBM7 cells, in the data set on KBM7_WT cells and in the data set with UBE2M_MUT KBM7 cells were greater than 10 µM, 3750 nM and greater than 10 µM, respectively.

As for `COc1ccc(C)cc1N1CC(C(=O)Nc2nc3ccccc3[nH]2)CC1=O` (centres unmarked) [Example Z11], the results for the CC50 in the data set with CUL4B_MUT KBM7 cells, with KBM7_WT cells and with UBE2M_MUT KBM7 cells were 2 µM, 920 nM and 2.75 µM, respectively.

As for `Cc1ccc2c(CC(=O)Nc3nccs3)coc2c1C` [Example Z1], the CC50 in the data set with CUL4B_MUT KBM7 cells was greater than 10 µM; with KBM7_WT cells it was 7120 nM; in the data set on UBE2M_MUT KBM7 cells, greater than 10 µM.

Regarding `O=C(Nc1nc2c(s1)CCCC2)C1CCCN1C(=O)c1ccccc1` (centres unmarked) [Example Z3], the CC50 was greater than 10 µM with CUL4B_MUT KBM7 cells, 11800 nM in the data set on KBM7_WT cells and greater than 10 µM with UBE2M_MUT KBM7 cells.

As to `O=C(CCn1cnc2ccccc2c1=O)Nc1ccc(Br)cn1` [Example Z7], the values for the CC50 in the data set with CUL4B_MUT KBM7 cells, in the data set with KBM7_WT cells and with UBE2M_MUT KBM7 cells were greater than 10 µM, 1810 nM and greater than 10 µM, respectively.
